Reference: paper PMC5876368, “Evaluation of a dimeric-cRGD peptide for targeted PET-CT imaging of peripheral angiogenesis in diabetic mice” (Scientific Reports, 2018)

Assays:
αV β3 integrin = target: T1, αV β3 integrin (Mus musculus, UniProt O54890+P43406); test: PET-CT imaging and gamma well counting of hindlimb uptake after femoral artery ligation, DM vs non-DM mice; type: in vivo; details: mice 1 week after femoral artery ligation
T1 construct: from tissue; host or cells: hindlimb skeletal muscle of live C57BL/6 mice (ischemic and non-ischemic, DM and non-DM)
T1 sequence (P43406 31-885 limits assumed): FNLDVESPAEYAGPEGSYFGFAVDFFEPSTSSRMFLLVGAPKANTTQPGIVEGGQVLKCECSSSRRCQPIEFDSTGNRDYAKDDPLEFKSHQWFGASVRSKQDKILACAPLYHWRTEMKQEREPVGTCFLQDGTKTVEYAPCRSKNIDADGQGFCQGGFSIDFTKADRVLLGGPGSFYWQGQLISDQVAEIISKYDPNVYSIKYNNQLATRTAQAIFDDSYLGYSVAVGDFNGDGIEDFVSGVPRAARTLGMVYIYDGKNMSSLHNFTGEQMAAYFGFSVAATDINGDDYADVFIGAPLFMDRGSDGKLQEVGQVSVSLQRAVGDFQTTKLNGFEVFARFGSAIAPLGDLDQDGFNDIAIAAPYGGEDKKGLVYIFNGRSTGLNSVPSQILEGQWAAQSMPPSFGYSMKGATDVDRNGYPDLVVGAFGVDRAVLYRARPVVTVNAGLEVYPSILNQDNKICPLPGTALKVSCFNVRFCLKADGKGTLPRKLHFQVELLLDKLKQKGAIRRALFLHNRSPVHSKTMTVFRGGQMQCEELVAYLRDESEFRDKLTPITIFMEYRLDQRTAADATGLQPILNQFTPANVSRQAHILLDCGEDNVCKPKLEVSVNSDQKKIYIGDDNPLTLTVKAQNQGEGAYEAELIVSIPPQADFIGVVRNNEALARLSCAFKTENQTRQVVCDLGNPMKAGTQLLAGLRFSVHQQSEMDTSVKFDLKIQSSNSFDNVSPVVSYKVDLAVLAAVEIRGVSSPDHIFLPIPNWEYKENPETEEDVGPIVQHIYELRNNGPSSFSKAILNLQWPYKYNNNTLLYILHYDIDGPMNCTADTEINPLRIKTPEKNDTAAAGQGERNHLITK
T1 sequence (P43406 887-1044 partner limits assumed): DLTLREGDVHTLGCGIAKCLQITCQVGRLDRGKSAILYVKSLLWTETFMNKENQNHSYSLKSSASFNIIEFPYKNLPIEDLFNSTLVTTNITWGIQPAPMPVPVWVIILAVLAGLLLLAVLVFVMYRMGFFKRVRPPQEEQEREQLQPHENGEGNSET
T1 sequence (O54890 26-787): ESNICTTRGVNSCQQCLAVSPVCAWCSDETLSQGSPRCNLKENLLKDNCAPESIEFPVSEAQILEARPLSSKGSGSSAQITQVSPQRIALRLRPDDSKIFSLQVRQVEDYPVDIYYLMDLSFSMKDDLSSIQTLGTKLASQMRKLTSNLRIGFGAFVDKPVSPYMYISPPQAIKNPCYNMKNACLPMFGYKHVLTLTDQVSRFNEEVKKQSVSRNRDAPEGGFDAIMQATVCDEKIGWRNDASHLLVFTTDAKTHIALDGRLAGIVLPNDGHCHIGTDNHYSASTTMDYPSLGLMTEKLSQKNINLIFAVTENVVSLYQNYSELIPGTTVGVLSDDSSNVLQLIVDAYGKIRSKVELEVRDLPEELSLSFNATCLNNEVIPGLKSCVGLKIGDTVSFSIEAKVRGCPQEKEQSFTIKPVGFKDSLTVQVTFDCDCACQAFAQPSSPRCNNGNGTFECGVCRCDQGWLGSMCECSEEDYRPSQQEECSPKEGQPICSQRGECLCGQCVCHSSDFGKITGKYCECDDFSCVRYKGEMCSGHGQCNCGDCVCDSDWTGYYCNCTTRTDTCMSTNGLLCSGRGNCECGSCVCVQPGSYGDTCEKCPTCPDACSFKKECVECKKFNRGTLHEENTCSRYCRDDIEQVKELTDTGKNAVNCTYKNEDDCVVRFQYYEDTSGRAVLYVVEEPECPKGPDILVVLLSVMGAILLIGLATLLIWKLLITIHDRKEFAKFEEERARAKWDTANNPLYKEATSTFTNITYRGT
Method: All animals underwent hindlimb occlusion of the right femoral artery and a sham operation on the left hindlimb, following previously-described procedures. Briefly, a small incision was made on the right leg to expose the femoral vasculature, and dual ligation of the femoral artery was performed distal to the profundus branch to induce unilateral hindlimb ischemia. All mice were allowed to recover for 7 days after surgery.
One week after occlusion, DM and non-DM mice (n = 15) were injected with 6.81 ± 0.536 MBq of ^64Cu-NOTA-PEG4-cRGD2 via the jugular vein and 60 minutes later in vivo microPET-CT imaging was performed using a small animal dedicated Inveon system (Siemens Healthcare USA). An additional group of non-diabetic mice (n = 4) was injected with 7.21 ± 2.31 MBq of ^64Cu-acetate to study differential organ biodistribution of ^64Cu-NOTA-PEG4-cRGD2. […]
The microPET and microCT images were reconstructed using the OSEM/3D algorithm (Siemens Healthcare USA) and the cone-beam technique (Cobra Exim), respectively. MicroPET images were fused with microCT images and quantified using a semiautomated approach developed and evaluated previously. […] To validate the accuracy of the quantitative targeted imaging approach, image-derived results were compared with the gamma well counting analysis of the corresponding tissue samples. […]

[1] = Biodistribution and clearance in mice (gamma well counting and PET-CT); type: in vivo; details: one hour after jugular vein injection, gamma well counting
Method: One week after occlusion, 5 groups of animals were injected with 6.81 ± 0.536 MBq of ^64Cu-NOTA-PEG4-cRGD2 via the jugular vein and at various time points (30 min n = 3, 1 hr n = 3, 2 hr n = 3, 4 hr n = 3, and 24 hr n = 2), different organs were excised and subjected to gamma well counting. The mass and radioactivity of tissue sections were assessed with a Voyager Pro. (Ohaus, USA) and Wizard2 gamma well counter (PerkinElmer, USA) respectively. The ^64Cu signal was then corrected to account for background radioactivity, radioactive decay of the samples, and tissue weight.
One week after occlusion, DM and non-DM mice (n = 15) were injected with 6.81 ± 0.536 MBq of ^64Cu-NOTA-PEG4-cRGD2 via the jugular vein and 60 minutes later in vivo microPET-CT imaging was performed using a small animal dedicated Inveon system (Siemens Healthcare USA). […]
Skeletal muscles from both the ischemic and non-ischemic hindlimbs were excised and separated into distal and proximal sections based on the location of the ligature in the ischemic limb and anatomical landmarks in the non-ischemic limb. The mass and radioactivity of tissue sections were assessed with a Voyager Pro. […] The ^64Cu signal was then corrected to account for background radioactivity, radioactive decay of the samples, and tissue weight.

For `CC(=O)[O-].CC(=O)[O-].[64Cu+2]` [^64Cu-acetate], the “retention in ischemic relative to non-ischemic hindlimb” value (αV β3 integrin) was “comparable accumulation in both limbs” and the “organ uptake in liver, gallbladder, kidneys and intestines” value [1] was greater than 20 %I.D./g.
